# According to US11504362B2, “Liquid dosage forms to treat cancer” (Exelixis, Inc., priority 2017, dated 2022):
# Several values for one entry are separate records, joined by “and”; a condition that tells them apart may be missing. Identical values can stand only once. Entries after “also recorded” stand apart in the source; their conditions may differ. Like-named read-outs stand apart in the source and are kept apart here.
# Experiments:
# [1] = biological target: VEGFR2 (Mus musculus, UniProt P35918); details: administration to mice; Yakes, et al. 2011; cited from earlier work
# [2] = system: RET; details: administration to mice; Yakes, et al. 2011; cited from earlier work
# [3] = rodent and non-rodent models; cited from earlier work
# [4] = cited from earlier work; for CL/F / t1/2 / Tmax / Cmax: single oral 140 mg FBE; for CL/F / t1/2 / Cmax: mean ± CV %; for Tmax: median (minimum, maximum); for Cmax: plasma, n = 72
# [5] = Percentage of 14C radioactivity associated with erythrocytes in whole blood (ETR); assay type: in vivo, human; details: single 175 mg oral dose
# Description: To determine the percentage of radioactivity associated with erythrocytes in whole blood over time (ETR; calculated only for time points that whole blood is collected), the following was calculated:
# The amount of ^14C radioactivity in plasma versus whole blood, adjusted for the hematocrit, at the specific time points of comparison (ETR=Xe/Xb=1−[Cp*(1−Hct)/Cb], where Xe and Xb stands for amount of radioactivity in erythrocyte or whole blood, respectively. Hematocrit values for Days-1, 2, and 4 were averaged for use in this calculation.
# Blood samples (4 mL) for whole blood analysis of total radioactivity were collected within 15 minutes pre-dose and at 1, 2, 4, 8, 14, 24, and 72 hours post-dose. […] Samples collected were used to determine the percentage of radioactivity associated with erythrocytes in whole blood over time (calculated only for time points that whole blood was collected).
# To determine the percentage of radioactivity associated with erythrocytes in whole blood over time (calculated only for time points where whole blood was collected), the following was calculated: the amount of radioactivity in plasma versus whole blood, adjusted for the hematocrit, at the specific time points of comparison (ETR=Xe/Xb=1−[Cp*(1-Hct)/Cb], where Cp stands for amount of radioactivity in plasma and Cb stands for the amount of radioactivity in blood and Hct stands for hematocrit value. Hematocrit values for Days-1, 2, and 4 were averaged for use in this calculation.
# [6] = Safety evaluation (AEs, vital signs, ECG, laboratory tests) in Phase 1 mass balance study; assay type: in vivo, human
# Description: Safety: Safety evaluations included assessments of AEs, vital signs, electrocardiogram (ECG), laboratory tests, and concomitant medications. Adverse event seriousness, severity grade, and relationship to study treatment were assessed by the investigator. Severity grade was defined by the National Cancer Institute Common Terminology Criteria for Adverse Events (CTCAE) version 4.0.
# Adverse event terms were standardized using the Medical Dictionary for Regulatory Activities and tabulated by system organ class and preferred term.
# Sequence of VEGFR2 (P35918 20-1345): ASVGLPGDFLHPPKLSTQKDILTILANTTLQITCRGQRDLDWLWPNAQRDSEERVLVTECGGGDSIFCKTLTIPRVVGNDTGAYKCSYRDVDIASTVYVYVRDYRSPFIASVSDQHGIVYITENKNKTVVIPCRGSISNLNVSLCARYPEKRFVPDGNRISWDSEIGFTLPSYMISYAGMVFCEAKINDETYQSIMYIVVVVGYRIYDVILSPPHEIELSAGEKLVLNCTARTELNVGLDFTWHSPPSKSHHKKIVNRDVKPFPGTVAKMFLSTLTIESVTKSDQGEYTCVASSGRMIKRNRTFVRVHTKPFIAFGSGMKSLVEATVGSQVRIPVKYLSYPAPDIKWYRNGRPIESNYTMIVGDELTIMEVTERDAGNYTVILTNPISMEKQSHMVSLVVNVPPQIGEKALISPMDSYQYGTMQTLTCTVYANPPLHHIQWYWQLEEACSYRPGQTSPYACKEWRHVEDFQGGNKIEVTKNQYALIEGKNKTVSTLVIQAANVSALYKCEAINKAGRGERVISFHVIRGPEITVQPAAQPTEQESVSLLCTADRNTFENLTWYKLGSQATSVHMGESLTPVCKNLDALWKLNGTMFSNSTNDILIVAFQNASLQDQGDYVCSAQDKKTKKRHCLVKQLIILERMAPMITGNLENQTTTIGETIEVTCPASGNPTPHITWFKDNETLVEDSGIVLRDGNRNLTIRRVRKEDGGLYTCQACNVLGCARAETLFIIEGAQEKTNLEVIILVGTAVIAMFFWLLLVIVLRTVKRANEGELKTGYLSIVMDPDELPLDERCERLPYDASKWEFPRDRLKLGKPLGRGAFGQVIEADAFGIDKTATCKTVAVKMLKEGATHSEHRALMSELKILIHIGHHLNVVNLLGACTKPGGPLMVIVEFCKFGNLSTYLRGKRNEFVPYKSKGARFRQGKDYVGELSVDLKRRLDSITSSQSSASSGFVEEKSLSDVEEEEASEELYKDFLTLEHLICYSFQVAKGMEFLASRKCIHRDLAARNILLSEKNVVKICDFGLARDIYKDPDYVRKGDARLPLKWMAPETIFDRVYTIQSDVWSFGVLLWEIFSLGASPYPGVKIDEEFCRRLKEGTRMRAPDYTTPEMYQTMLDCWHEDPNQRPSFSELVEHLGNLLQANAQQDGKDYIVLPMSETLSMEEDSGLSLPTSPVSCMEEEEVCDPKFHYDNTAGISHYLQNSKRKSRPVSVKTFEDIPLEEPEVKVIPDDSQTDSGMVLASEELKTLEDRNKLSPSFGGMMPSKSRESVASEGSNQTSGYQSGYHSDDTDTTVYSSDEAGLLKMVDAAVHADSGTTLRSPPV
smiles,measurement,setting,value
"COc1cc2nccc(Oc3ccc(NC(=O)C4(C(=O)Nc5ccc(F)cc5)CC4)cc3)c2cc1OC [XL184, N-(4-{[6,7-bis(methyloxy)quinolin-4-yl]oxy}phenyl)-N′-(4-fluorophenyl)cyclopropane-1,1-dicarboxamide]",Inhibition of VEGFR2 in vivo,[1],dose-dependent inhibition
same,Inhibition of RET in vivo,[2],dose-dependent inhibition
same,Oral bioavailability,[3],orally bioavailable
same,"% CV of Cmax, AUC0-t, and AUC0-inf",[4]; 20 mg (FBE) tablet strength,48-72%
same,"% CV of Cmax, AUC0-t, and AUC0-inf",[4]; 40 mg (FBE) tablet strength,42-56%
same,"% CV of Cmax, AUC0-t, and AUC0-inf",[4]; 60 mg (FBE) tablet strength,38-41%
same,% CV of AUC0-inf,[4]; 140 mg (FBE) capsule,~39%
same,% CV of AUC0-t,[4]; 140 mg (FBE) capsule,~37%
same,% CV of Cmax,[4]; 140 mg (FBE) capsule,~43%
same,% CV of AUC0-inf,[4]; 140 mg (FBE) tablet,~46%
same,% CV of AUC0-t,[4]; 140 mg (FBE) tablet,~44%
same,% CV of Cmax,[4]; 140 mg (FBE) tablet,about 54%
same,CL/F,[4]; capsule formulation,2.69 ± 32 L/h
same,t1/2,[4]; capsule formulation,112 ± 26 h
same,Tmax,[4]; capsule formulation,"4.00 (2.00, 5.04) h"
same,Cmax,[4]; capsule formulation,0.554 ± 0.043 µg/mL
same,CL/F,[4]; tablet formulation,2.61 ± 49 L/h
same,t1/2,[4]; tablet formulation,115 ± 31 h
same,Tmax,[4]; tablet formulation,"3.49 (1.99, 24.00) h"
same,Cmax,[4]; tablet formulation,0.702 ± 0.054 µg/mL
same,Percentage of 14C Radioactivity Associated with Erythrocytes in Whole Blood (ETR),"[5]; 1.00 h, Max (N=8)",14%
same,Percentage of 14C Radioactivity Associated with Erythrocytes in Whole Blood (ETR),"[5]; 1.00 h, Mean (N=8)",7.08%
same,Percentage of 14C Radioactivity Associated with Erythrocytes in Whole Blood (ETR),"[5]; 1.00 h, Median (N=8)",8.0%
same,Percentage of 14C Radioactivity Associated with Erythrocytes in Whole Blood (ETR),"[5]; 1.00 h, Min (N=8)",−3.4%
same,Percentage of 14C Radioactivity Associated with Erythrocytes in Whole Blood (ETR),"[5]; 1.00 h, individual subjects",6.87% and 14.1% (2×) and −3.37% and 9.27% and 3.64% and 9.17% and 2.89%
same,Percentage of 14C Radioactivity Associated with Erythrocytes in Whole Blood (ETR),"[5]; 2.00 h, GM, geometric mean (N=8)",7.30%
same,Percentage of 14C Radioactivity Associated with Erythrocytes in Whole Blood (ETR),"[5]; 2.00 h, Max (N=8)",14%
same,Percentage of 14C Radioactivity Associated with Erythrocytes in Whole Blood (ETR),"[5]; 2.00 h, Mean (N=8)",7.85%
same,Percentage of 14C Radioactivity Associated with Erythrocytes in Whole Blood (ETR),"[5]; 2.00 h, Median (N=8)",6.7%
same,Percentage of 14C Radioactivity Associated with Erythrocytes in Whole Blood (ETR),"[5]; 2.00 h, Min (N=8)",4.1%
same,Percentage of 14C Radioactivity Associated with Erythrocytes in Whole Blood (ETR),"[5]; 2.00 h, individual subjects",6.90% and 13.7% and 6.40% and 4.14% and 5.07% and 5.90% and 10.3% and 10.5%
same,Percentage of 14C Radioactivity Associated with Erythrocytes in Whole Blood (ETR),"[5]; 4.00 h, GM, geometric mean (N=8)",5.96%
same,Percentage of 14C Radioactivity Associated with Erythrocytes in Whole Blood (ETR),"[5]; 4.00 h, Max (N=8)",9.0%
same,Percentage of 14C Radioactivity Associated with Erythrocytes in Whole Blood (ETR),"[5]; 4.00 h, Mean (N=8)",6.40%
same,Percentage of 14C Radioactivity Associated with Erythrocytes in Whole Blood (ETR),"[5]; 4.00 h, Median (N=8)",6.5%
same,Percentage of 14C Radioactivity Associated with Erythrocytes in Whole Blood (ETR),"[5]; 4.00 h, Min (N=8)",2.1%
same,Percentage of 14C Radioactivity Associated with Erythrocytes in Whole Blood (ETR),"[5]; 4.00 h, individual subjects",8.27% and 6.45% and 6.26% and 8.96% and 6.74% and 2.05% and 6.55% and 5.88%
same,Percentage of 14C Radioactivity Associated with Erythrocytes in Whole Blood (ETR),"[5]; 8.00 h, GM, geometric mean (N=8)",10.9%
same,Percentage of 14C Radioactivity Associated with Erythrocytes in Whole Blood (ETR),"[5]; 8.00 h, Max (N=8)",17%
same,Percentage of 14C Radioactivity Associated with Erythrocytes in Whole Blood (ETR),"[5]; 8.00 h, Mean (N=8)",12.2%
same,Percentage of 14C Radioactivity Associated with Erythrocytes in Whole Blood (ETR),"[5]; 8.00 h, Median (N=8)",13%
same,Percentage of 14C Radioactivity Associated with Erythrocytes in Whole Blood (ETR),"[5]; 8.00 h, Min (N=8)",3.4%
same,Percentage of 14C Radioactivity Associated with Erythrocytes in Whole Blood (ETR),"[5]; 8.00 h, individual subjects",12.8% and 17.1% and 13.6% and 17.2% and 12.0% and 3.37% and 15.4% and 6.19%
same,Percentage of 14C Radioactivity Associated with Erythrocytes in Whole Blood (ETR),"[5]; 14.00 h, GM, geometric mean (N=8)",11.7%
same,Percentage of 14C Radioactivity Associated with Erythrocytes in Whole Blood (ETR),"[5]; 14.00 h, Max (N=8)",17%
same,Percentage of 14C Radioactivity Associated with Erythrocytes in Whole Blood (ETR),"[5]; 14.00 h, Mean (N=8)",12.3%
same,Percentage of 14C Radioactivity Associated with Erythrocytes in Whole Blood (ETR),"[5]; 14.00 h, Median (N=8)",13%
same,Percentage of 14C Radioactivity Associated with Erythrocytes in Whole Blood (ETR),"[5]; 14.00 h, Min (N=8)",6.1%
same,Percentage of 14C Radioactivity Associated with Erythrocytes in Whole Blood (ETR),"[5]; 14.00 h, individual subjects",6.13% and 17.0% and 12.1% and 7.45% and 12.7% and 14.1% and 14.0% and 14.9%
same,Distribution of radioactivity between plasma and red blood cells,[5],present primarily in plasma and not markedly associated with red blood cells
same,Total number of TEAEs,[6]; 8 subjects,36
same,TEAEs resolved within 1 to 3 days,[6]; 31/36,86%
same,Severity of one event of treatment related dizziness,[6]; CTCAE version 4.0,moderate (CTCAE grade 2)
same,Severity of the majority of TEAEs,[6]; CTCAE version 4.0,mild in severity (CTCAE grade 1)
same,Laboratory values,[6]; changes from baseline,no clinically significant changes from baseline in any laboratory values; also recorded: no notable clinical laboratory findings
same,Subjects reporting TEAEs assessed as related to the study treatment,[6]; five subjects,62.5%
same,Vital signs and ECG evaluations,[6]; in vivo,No remarkable on study results were noted
same,Tolerability,[6]; single 175 mg oral dose,well tolerated
same,"Deaths, SAEs, discontinuations due to AEs, other significant AEs","[6]; single 175 mg oral dose, 8 healthy male subjects","no deaths, other SAEs, discontinuations due to AEs, or other significant AEs"
same,Subjects reporting TEAEs,[6]; six of 8 subjects,75%
same,Subjects reporting flatulence,[6]; three subjects,37.5%
same,Subjects reporting headache,[6]; three subjects,37.5%
same,Vomiting after dosing,[6]; within 4 hours of dosing,No subject vomited within 4 hours of dosing
